One compound from PMC12866838, “Targeting G3BP1 Condensate Topology Promotes Stress Granule Assembly via m^6A‐IGF2BP1 for Ischemic Stroke Rescue” (Advanced Science, 2025) can be followed below.

Usually Kd stands for a measure of binding affinity in units of concentration.

Bounds are passed on as bounds.

The target of this test is T1, G3BP1^335–466 (RRM and IDR3 domains) (Homo sapiens, UniProt Q13283).
T1 construct: RRM + IDR3, residues 335-466, N-terminal GST removed by thrombin, E. coli BL21(DE3)
The experiment in a line: SPR (Biacore T200, protein on CM5 chip). Format: binding. On the technique in general: Surface plasmon resonance follows binding to a sensor surface in real time, without labels.

T1 sequence (Q13283 335-466): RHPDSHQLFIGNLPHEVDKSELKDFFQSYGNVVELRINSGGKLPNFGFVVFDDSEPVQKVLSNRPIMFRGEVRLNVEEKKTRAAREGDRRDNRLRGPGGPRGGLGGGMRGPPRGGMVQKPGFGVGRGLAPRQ

`COc1ccc(-c2oc3c(CC=C(C)C)c(O[C@@H]4O[C@H](CO)[C@@H](O)[C@H](O)[C@H]4O)cc(O)c3c(=O)c2O[C@@H]2O[C@@H](C)[C@H](O)[C@@H](O)[C@H]2O)cc1` [icariin] showed a Kd greater than 100 µM.
